Earlier results as cited in patent publication US20090233811A1, “Manufacture of Array Chips” (Randox Laboratories Ltd., priority 2005, published 2009).

Conditions: data from Sigma-Aldrich Handbook of Stains, Dyes and Indicators

Solubility in water [mg/mL]	SMILES
300	O=C([O-])C1=NN(c2ccc(S(=O)(=O)[O-])cc2)C(=O)C1N=Nc1ccc(S(=O)(=O)[O-])cc1.[Na+].[Na+].[Na+] (stereo not drawn) [Tartrazine]
50	O=S(=O)([O-])c1cc(S(=O)(=O)[O-])c2c(N=Nc3ccc(N=Nc4ccccc4)cc3)c(O)ccc2c1.[Na+].[Na+] [Brilliant Crocein MOO]
40	O=S(=O)([O-])c1ccc2c(/N=N/c3ccccc3)c(O)ccc2c1.[Na+] [Crocein Orange]
200	O=S(=O)([O-])c1cc(O)c2c(O)c(N=Nc3ccccc3)c(S(=O)(=O)[O-])cc2c1.[Na+].[Na+] [Chromotrope 2R]

SMILES	Solubility in water [mg/mL]
CC(=O)Nc1cc(S(=O)(=O)[O-])cc2cc(S(=O)(=O)[O-])c(/N=N/c3ccccc3)c(O)c12.[Na+].[Na+] [Acid Red 1]	60
O=S(=O)([O-])c1cc(/N=N/c2ccc(O)cc2)ccc1C=Cc1ccc(/N=N/c2ccc(O)cc2)cc1S(=O)(=O)[O-].[Na+].[Na+] [Brilliant Yellow]	1
